Among the data in patent US7683078B2, “Arylsulfonamide derivatives as C-Jun-N-Terminal Kinases (JNK's) inhibitors” (Laboratoires Serono S.A., priority 2001, dated 2010) are IC50 values, retold here.

Usually IC50 stands for the concentration that gives 50% inhibition.

The experiment has as its target JNK3 (Homo sapiens, UniProt P53779). The experiment is described as follows: JNK3 in vitro assay (33P incorporation into c-jun, SPA). The following applies: recombinant pre-activated GST-JNK3, biotinylated GST-c-Jun, 2 μM 33γ-ATP, 120 min R.T.; read-out: inhibition (IC50) with regard to JNK3. The class given is biochemical. On the procedure: The phosphorylation of c-jun by JNK2 or JNK3 can be followed by monitoring the incorporation of ^33P into c-jun following the protocol below. The inhibitory activity of the compounds according to formula I, towards c-jun phosphorylation through JNK, is determined by calculating phosphorylation activity in the presence or absence of compounds according to formula I.
JNK3 and/or -2 assays are performed in 96 well MTT plates: incubation of 0.5 μg of recombinant, pre-activated GST-JNK3 or GST-JNK2 with 1 μg of recombinant, biotinylated GST-c-Jun and 2 μM ^33γ-ATP (2 nCi/μl), in the presence or absence of compounds according to formula I and in a reaction volume of 50 μl containing 50 mM Tris-HCl, pH 8.0; 10 mM MgCl2; 1 mM Dithiothreitol, and 100 μM Na3VO4. The incubation is performed for 120 min. at R.T and stopped upon addition of 200 μl of a solution containing 250 μg of Streptavidine-coated SPA beads (Amersham, Inc.)*, 5 mM EDTA, 0.1% Triton-X-100 and 50 μM ATP, in phosphate saline buffer. After incubation for 60 minutes at RT, beads are sedimented by centrifugation at 1500×g for 5 minutes, resuspended in 200 μl of PBS containing 5 mM EDTA, 0.1% Triton X-100 and 50 μM ATP and the radioactivity measured in a scintillation β counter, following sedimentation of the beads as described above. […]

JNK3, sequence (P53779 whole entry, species assumed): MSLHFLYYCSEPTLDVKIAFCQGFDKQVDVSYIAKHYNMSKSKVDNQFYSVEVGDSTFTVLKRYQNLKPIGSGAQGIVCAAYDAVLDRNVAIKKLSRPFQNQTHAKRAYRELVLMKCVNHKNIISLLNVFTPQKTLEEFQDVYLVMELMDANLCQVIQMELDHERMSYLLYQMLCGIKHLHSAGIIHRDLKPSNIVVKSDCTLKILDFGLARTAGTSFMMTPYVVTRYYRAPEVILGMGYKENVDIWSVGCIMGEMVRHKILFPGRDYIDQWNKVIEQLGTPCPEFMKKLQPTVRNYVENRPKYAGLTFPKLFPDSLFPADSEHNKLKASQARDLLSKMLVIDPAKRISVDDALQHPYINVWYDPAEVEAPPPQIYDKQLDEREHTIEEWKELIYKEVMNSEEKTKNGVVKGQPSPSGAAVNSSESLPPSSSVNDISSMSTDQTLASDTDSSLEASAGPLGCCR

Regarding `CN(CCCNCc1ccc(C(F)(F)F)cc1)S(=O)(=O)c1ccc(CNC(=O)c2ccc(Cl)cc2)s1` [Compound 13, 4-Chloro-N-(5-{methyl-[3-(4-trifluoromethyl-benzylamino)-propyl]-sulfamoyl}-thiophen-2-ylmethyl)-benzamide], the IC50 came out at 188 nM. Regarding `CCCCCCNCCCN(C)S(=O)(=O)c1ccc(CNC(=O)c2ccc(Cl)cc2)s1` [Compound 14, 4-Chloro-N-{5-[(3-hexylamino-propyl)-methyl-sulfamoyl]-thiophen-2-ylmethyl}-benzamide], the IC50 came to 184 nM.
